Laboratory results from US20240182531A1, “KV1.3 Blockers” (priority 2021, published 2024).
Where a SMILES comes first, the peptide text is derived from it. Bridges are numbered along the chain shown (N, C = ends).

What was measured:
human Kv1.6 = molecular target: T1, human Kv1.6 (Homo sapiens, UniProt P17658); assay: cell-based; conditions: ratio of patch clamp IC50 values
T1 construct: expressed in transfected cells; host or cells: CHO

Rat whole blood = Rat whole blood (Rattus norvegicus, UniProt P15384); assay type: cell-based; conditions: IL-17A release, thapsigargin, 24 Hr, at least 2 replicates
Rat whole blood, sequence (P15384 whole entry): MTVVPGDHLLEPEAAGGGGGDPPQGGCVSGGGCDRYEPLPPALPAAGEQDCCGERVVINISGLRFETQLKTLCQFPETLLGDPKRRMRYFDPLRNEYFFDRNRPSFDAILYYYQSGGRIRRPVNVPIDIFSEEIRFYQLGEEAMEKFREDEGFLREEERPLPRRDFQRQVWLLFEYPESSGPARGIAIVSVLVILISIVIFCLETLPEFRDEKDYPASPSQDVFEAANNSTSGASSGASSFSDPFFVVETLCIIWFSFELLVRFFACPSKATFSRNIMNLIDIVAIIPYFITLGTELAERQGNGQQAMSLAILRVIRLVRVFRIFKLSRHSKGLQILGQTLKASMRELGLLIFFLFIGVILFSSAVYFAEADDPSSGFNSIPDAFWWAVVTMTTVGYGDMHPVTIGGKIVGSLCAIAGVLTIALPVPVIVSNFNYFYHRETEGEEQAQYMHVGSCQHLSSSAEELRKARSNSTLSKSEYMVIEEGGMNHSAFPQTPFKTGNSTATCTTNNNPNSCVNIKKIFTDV

human Kv1.2 = molecular target: T2, human Kv1.2 (Homo sapiens, UniProt P16389); assay: cell-based; conditions: ratio of patch clamp IC50 values
T2 construct: expressed in transfected cells; host or cells: CHO
T2 sequence (P16389 whole entry): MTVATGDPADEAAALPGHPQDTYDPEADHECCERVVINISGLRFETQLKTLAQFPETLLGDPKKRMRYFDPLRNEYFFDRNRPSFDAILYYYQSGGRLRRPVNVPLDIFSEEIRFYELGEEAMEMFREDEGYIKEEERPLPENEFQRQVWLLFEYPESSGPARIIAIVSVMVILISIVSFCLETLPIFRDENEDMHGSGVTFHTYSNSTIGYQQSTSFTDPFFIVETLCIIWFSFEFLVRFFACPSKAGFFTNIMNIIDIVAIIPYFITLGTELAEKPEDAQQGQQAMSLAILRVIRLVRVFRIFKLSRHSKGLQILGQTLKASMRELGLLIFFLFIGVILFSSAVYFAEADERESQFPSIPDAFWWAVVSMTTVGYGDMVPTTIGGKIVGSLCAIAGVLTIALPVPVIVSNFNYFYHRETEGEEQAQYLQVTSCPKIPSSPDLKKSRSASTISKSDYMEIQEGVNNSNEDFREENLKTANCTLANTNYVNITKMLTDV

human Kv1.1 = molecular target: T3, human Kv1.1 (Homo sapiens, UniProt Q09470); assay: cell-based; conditions: ratio of patch clamp IC50 values
T3 construct: expressed in transfected cells; host or cells: CHO
T3 sequence (Q09470 whole entry): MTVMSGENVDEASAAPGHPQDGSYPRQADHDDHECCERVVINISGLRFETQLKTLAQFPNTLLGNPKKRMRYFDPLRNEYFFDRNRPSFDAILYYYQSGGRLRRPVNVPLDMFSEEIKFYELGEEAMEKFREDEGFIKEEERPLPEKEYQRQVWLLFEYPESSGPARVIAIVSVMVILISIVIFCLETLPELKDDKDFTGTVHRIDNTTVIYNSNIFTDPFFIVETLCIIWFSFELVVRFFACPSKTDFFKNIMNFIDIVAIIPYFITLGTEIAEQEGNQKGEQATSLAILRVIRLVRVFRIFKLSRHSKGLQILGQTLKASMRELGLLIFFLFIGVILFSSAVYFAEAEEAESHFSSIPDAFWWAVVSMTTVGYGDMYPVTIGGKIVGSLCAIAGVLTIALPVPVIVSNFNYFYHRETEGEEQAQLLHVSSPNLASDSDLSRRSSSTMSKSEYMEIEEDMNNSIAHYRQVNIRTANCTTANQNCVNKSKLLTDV

T1 sequence (P17658 whole entry): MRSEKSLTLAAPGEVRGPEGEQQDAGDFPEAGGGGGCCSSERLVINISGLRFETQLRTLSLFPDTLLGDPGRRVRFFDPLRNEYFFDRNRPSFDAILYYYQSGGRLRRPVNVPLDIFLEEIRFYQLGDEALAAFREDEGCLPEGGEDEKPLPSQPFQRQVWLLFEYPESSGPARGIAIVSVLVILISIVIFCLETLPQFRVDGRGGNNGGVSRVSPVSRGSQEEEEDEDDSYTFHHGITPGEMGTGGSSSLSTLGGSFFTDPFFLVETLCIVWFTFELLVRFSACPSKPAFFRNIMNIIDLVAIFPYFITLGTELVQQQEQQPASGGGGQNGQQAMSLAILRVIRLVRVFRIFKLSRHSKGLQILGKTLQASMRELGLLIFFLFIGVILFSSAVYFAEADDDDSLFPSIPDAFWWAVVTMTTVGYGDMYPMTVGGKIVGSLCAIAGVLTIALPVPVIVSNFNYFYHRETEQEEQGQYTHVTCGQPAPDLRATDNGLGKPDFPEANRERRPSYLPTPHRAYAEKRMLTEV

Compound | Selectivity ratio Kv1.6/Kv1.3 (human Kv1.6) | IC50 (Rat whole blood) [nM] | Selectivity ratio Kv1.2/Kv1.3 (human Kv1.2) | Selectivity ratio Kv1.1/Kv1.3 (human Kv1.1)
CC[C@H](C)[C@@H]1NC(=O)[C@H](C)NC(=O)[C@H](CCCCN)NC(=O)[C@H](CC(C)C)NC(=O)[C@@H]2CSSC[C@@H](C(=O)N[C@@H](Cc3ccc(O)cc3)C(=O)N3CCC[C@H]3C(=O)N[C@@H](CCCNC(=N)N)C(N)=O)NC(=O)[C@H](CCCCN)NC(=O)[C@@H]3CSSC[C@H](NC(=O)[C@H](CCC(=O)O)NC(=O)[C@H](C(C)C)NC(=O)[C@H](CO)NC(=O)[C@H]([C@@H](C)CC)NC(=O)[C@H](CO)NC(=O)[C@@H](NC(=O)[C@H](CCCNC(=N)N)NC(=O)[C@H](CCSC)NC(=O)[C@H](CC(=O)O)NC(=O)[C@H](CCSC)NC(=O)[C@@H](N)CC(N)=O)CSSC[C@H](NC(=O)[C@H](CCCCN)NC(=O)CNC(=O)[C@H](Cc4ccccc4)NC(=O)[C@H]([C@@H](C)CC)NC(=O)[C@H](CO)NC(=O)CNC1=O)C(=O)N[C@@H](CCSC)C(=O)N[C@@H](CC(N)=O)C(=O)N[C@@H](CCCCN)C(=O)N[C@@H](CCCCN)C(=O)N3)C(=O)N[C@@H](CCCCN)C(=O)N[C@@H](CCC(N)=O)C(=O)N[C@@H](CCCCN)C(=O)N2 [compound 30] (H-NMDMRCSISVECKQKCLKAIGSIFGKCMNKKCKCYPR-NH2; disulfide 6-27, 12-32, 16-34) | >11800 | 0.61 | 169 | >11800
CC[C@H](C)[C@@H]1NC(=O)[C@H](C)NC(=O)[C@H](CCCCN)NC(=O)[C@H](CC(C)C)NC(=O)[C@@H]2CSSC[C@@H](C(=O)N[C@@H](Cc3ccc(O)cc3)C(=O)N3CCC[C@H]3C(=O)N[C@@H](CCCNC(=N)N)C(N)=O)NC(=O)[C@H](CCCCN)NC(=O)[C@@H]3CSSC[C@H](NC(=O)[C@H](CCC(=O)O)NC(=O)[C@H](CCCNC(=N)N)NC(=O)[C@H](CO)NC(=O)[C@H](C)NC(=O)[C@H](CO)NC(=O)[C@@H](NC(=O)[C@H](CCCNC(=N)N)NC(=O)[C@H](CCSC)NC(=O)[C@H](CC(=O)O)NC(=O)[C@H](CCSC)NC(=O)[C@@H](N)CC(N)=O)CSSC[C@H](NC(=O)[C@H](CCCCN)NC(=O)CNC(=O)[C@H](Cc4ccccc4)NC(=O)[C@H]([C@@H](C)CC)NC(=O)[C@H](CO)NC(=O)CNC1=O)C(=O)N[C@@H](CCSC)C(=O)N[C@@H](CC(N)=O)C(=O)N[C@@H](CCCCN)C(=O)N[C@@H](CCCCN)C(=O)N3)C(=O)N[C@@H](CCCCN)C(=O)N[C@@H](CCC(N)=O)C(=O)N[C@@H](CCCCN)C(=O)N2 [compound 31] (H-NMDMRCSASRECKQKCLKAIGSIFGKCMNKKCKCYPR-NH2; disulfide 6-27, 12-32, 16-34) | 1778 | 0.68 | 94 | >25900
CC[C@H](C)[C@@H]1NC(=O)[C@H](C)NC(=O)[C@H](CCCCN)NC(=O)[C@H](CC(C)C)NC(=O)[C@@H]2CSSC[C@@H](C(=O)N[C@@H](Cc3ccc(O)cc3)C(=O)N3CCC[C@H]3C(=O)N[C@@H](CCCNC(=N)N)C(N)=O)NC(=O)[C@H](CCCCN)NC(=O)[C@@H]3CSSC[C@H](NC(=O)[C@H](CCC(N)=O)NC(=O)[C@H](C(C)C)NC(=O)[C@H](CO)NC(=O)[C@H](C)NC(=O)[C@H](CO)NC(=O)[C@@H](NC(=O)[C@H](CCCNC(=N)N)NC(=O)[C@H](CCSC)NC(=O)[C@H](CC(=O)O)NC(=O)[C@H](CCSC)NC(=O)[C@@H](N)CC(N)=O)CSSC[C@H](NC(=O)[C@H](CCCCN)NC(=O)CNC(=O)[C@H](Cc4ccccc4)NC(=O)[C@H]([C@@H](C)CC)NC(=O)[C@H](CO)NC(=O)CNC1=O)C(=O)N[C@@H](CCSC)C(=O)N[C@@H](CC(N)=O)C(=O)N[C@@H](CCCCN)C(=O)N[C@@H](CCCCN)C(=O)N3)C(=O)N[C@@H](CCCCN)C(=O)N[C@@H](CCC(N)=O)C(=O)N[C@@H](CCCCN)C(=O)N2 [compound 32] (H-NMDMRCSASVQCKQKCLKAIGSIFGKCMNKKCKCYPR-NH2; disulfide 6-27, 12-32, 16-34) | 1272 | 0.53 | 83 | >15200
